Measurements published in patent publication US20220142959A1, “LEUCINE, ACETYL LEUCINE, AND RELATED ANALOGS FOR TREATING DISEASE” (priority 2019, published 2022).

Legend:
[1] = system: rat primary cortical neurons (NE and NG cultures); experiment: Truncated tau and neuronal markers in neuron-enriched and neuron-glia cultures; assay type: cell-based
Procedure: FIG. 20 is eight Western blots of tau (5E2), synaptophysin and βIII-tubulin in rat primary cortical neurons (neuron-enriched (NE) and neuron-glia (NG) cultures) in the absence and presence of ADLL, ALL, ADL, DLL, LL, DL, and LLE (1 mM, 5 days).
The efficacy of ADLL, ALL, ADL, DLL, LL, DL, and LLE in reducing truncated tau levels in neuron-glia (NG) cultures was investigated. The results of this study are provided in FIGS. 20-24 One aim of this study was to determine whether ADLL, ALL, ADL, DLL, LL, DL, and LLE conferred intrinsic neuroprotection by sustaining neuronal function under conditions of cellular overgrowth, or whether they acted indirectly through the non-autonomous modulation of glial cells. Irrespective of whether the compounds acted directly or indirectly on neurons, preventing the generation of truncated tau confers beneficial effects to neuronal integrity.
Cultures were treated for five days (DIV 9-14) with 1 mM of ADLL, ALL, ADL, DLL, LL, DL, or LLE, and were subsequently assessed for a number of neuron-specific markers that could provide a readout on neuronal health: βIII-tubulin, full-length tau, truncated tau (antibody 5E2) and synaptophysin. ADLL, ALL, ADL, DLL, LL, DL, and LLE were well-tolerated in NE and NG cultures, as evidenced by consistently equal levels of synaptophysin and βIII-tubulin detected across untreated (control) and drug-treated samples (FIGS. 20, 23, and 24). None of ADLL, ALL, ADL, DLL, LL, DL, and LLE reduced basal levels of truncated tau in NG cultures at DIV14 (FIG. 20 and FIG. 22).

[2] = system: CD68 positive activated microglia; experiment: CD68 positive activated microglia in cerebellum of Npc1−/− mice; assay type: in vivo; details: 59 days of age, compared to Npc1−/− UT
Source text: FIG. 46 is an image showing cerebellar Purkinje cell loss progressing from anterior to posterior lobes and microglial activation in untreated Npc1^−/− mice and Npc1^−/− mice treated with ADLL, ALL, and ADL. Cerebellums were stained with calbindin-b (Purkinje cells) or CD68 (activated microglia).
FIG. 48 is a scatter graph showing frequency of CD68 positive activated microglia at 59 days of age in untreated Npc1^−/− mice and Npc1^−/− mice treated with ADLL, ALL, and ADL. CD68 cell density was measured in the cerebellum. n=5 animals per group. Mean±SD, *** p<0.0009 (one-way ANOVA).
The combination of increased survival of neurons and a less inflammatory environment in the brain could improve brain function, quality of life, and delay the progression of disease in human subjects.

[3] = system: LC3-II and APP-CTFs; experiment: EAL flux in NPC1 mice (cerebellum LC3-II and APP-CTFs); assay type: in vivo, mouse; details: treated 3 weeks
Source text: FIG. 14 is a histogram of the ratio of LC3-II expression to βIII-tubulin in the cerebellum of mouse NPC1 brains at 9-12 weeks of age treated with ADLL, ALL, ADL, DLL, LL, DL, LLE, and miglustat (miglu.) for 3 weeks relative to untreated NPC1 cerebellum (n=4, mean±S.E.M).
FIG. 15 is a histogram of the ratio of APP-CTFs: full-length APP expression in the cerebellum of mouse NPC1 brains at 9-12 weeks of age treated with ADLL, ALL, ADL, DLL, LL, DL, LLE, and miglustat (miglu.) for 3 weeks relative to untreated NPC1 cerebellum (n=4, mean±S.E.M).
FIG. 16 is a histogram of the ratio of APP-CTF-6: full-length APP expression in the cerebellum of mouse NPC1 brains at 9-12 weeks of age treated with ADLL, ALL, ADL, DLL, LL, DL, and LLE for 3 weeks relative to untreated NPC1 cerebellum.
FIG. 17 is a histogram of the ratio of APP-CTF-7: full-length APP expression in the cerebellum of mouse NPC1 brains at 9-12 weeks of age treated with ADLL, ALL, ADL, DLL, LL, DL, and LLE for 3 weeks relative to untreated NPC1 cerebellum (n=4, mean±S.E.M).
The efficacy of ADLL, ALL, ADL, DLL, LL, DL, and LLE in alleviating the impairment of EAL flux in NPC1 mice was investigated. […] Without wishing to be bound by any particular theory, it is possible that ADL and LLE reduced autophagic vacuole (AV) build-up by inhibiting autophagosome formation, possibly through the activation mTORC1. […] Also, acetyl L-leucine (ALL), acetyl D-leucine (ADL) and L-leucine (LL) reduced CTF-7 expression, indicating some improvement in lysosomal proteolysis (FIG. 17).

Q: How did the “tolerability (levels of synaptophysin and βIII-tubulin vs untreated control)” value ([1]; NE and NG cultures, 1 mM, five days (DIV 9-14)) turn out when `CC(=O)N[C@@H](CC(C)C)C(=O)O` [ALL, acetyl-L-leucine] was run?
A: The value was “well-tolerated”.

Q: And the “reduction of basal levels of truncated tau” value ([1]; NG cultures at DIV14, 1 mM, five days)?
A: Its value is “None”.

Q: What about the “reduction of frequency of CD68 positive activated microglia” value [2] of the same compound?
A: Its value is 20%.

Q: What about the “CTF-7 expression / clearance” value [3] of the same compound?
A: Its value is “reduced”.
